Results taken from US10875845B2, “Compounds and methods for the treatment of ocular disorders” (Azura Ophthalmics Ltd., priority 2019, dated 2020).

Tests used:
[1] = test system: Rabbit Cornea Homogenate; test: Rabbit Cornea Homogenate Stability Assay (rabbit cornea esterase assay); assay type: in vitro ADME; settings: 37° C.
Experimental: Determining Rabbit Cornea Homogenate stability of the test compounds was performed using HPLC-MS. The assay was performed at two concentrations of Rabbit Cornea Homogenate (0.15 mg/ml and 0.45 mg/ml total protein) so that any hydrolysis observed could be assigned as esterase dependent or not.
Five rabbit corneas (e.g. New Zealand Whites) of approx. 50 mg each were sliced and scraped with a scalpel and tweezers until reduced to small (1-3 mm), thin pieces. These were transferred into a tared vial and accurately weighed, then diluted with 10 volumes aqueous PBS pH7.4
Sample was cooled intermittently on ice and shear homogenized for 3 minutes, then centrifuged for 3 min at 3000 rpm. The supernatant was pipetted off into a vial, and total protein concentration determined at 280 nm. Sample was stored at −78° C.
10 mM Compound stocks were diluted to 100 μM in a 96 deep-well plate: 10 μl of 10 mM Compound stock was added to 990 μl 50 mM HEPES, pH7.5 buffer.
Compounds were further diluted to 10 μM: 100 μl of 100 μM compound was added to 900 μl 50 mM HEPES, pH7.5 buffer.
Esterase homogenate was diluted to 300 ng/μl and 900 ng/μl
A heater shaker was set to 37° C. Into a suitable 96 well plate (Run Plate), 75 μl of 300 or 900 ng/μl esterase homogenate was pipetted into each of the required wells (2 min, 5 min, 10 min, 20 min and 45 min). The plate was sealed and then warmed at 37° C. for 5 min. Another 96 well PCR plate is put on ice (Kill Plate). To this was added 100 μl of MeCN to each well, labelled 0 min, 2 min, 5 min, 10 min, 20 min and 45 min. The plate was covered to minimise evaporation. For the T=0 sample only, to the 100 μl cold MeCN stop solution was added 50 μl of 300 or 900 ng/μl esterase homogenate followed by 50 μl of 10 μM compound solution For the remaining time points, 75 μl of 10 μM compound solution was added to the Run Plate starting from T=45 min row and ending with T=2 min row. At the appropriate time point, 100 μl of the assay mixture was added to the matching kill plate well containing 100 μl of cold MeCN. Samples were analysed as soon as practicable by LCMS (Waters Xevo TQ-S or Micromass Ultima).
Parent conjugate and parent concentrations were determined against appropriate standard response curves and the half-life (T1/2) of the parent conjugate was calculated using the peak area of the parent conjugate at each time point in the linear region of the log—linear plot.

[2] = Aqueous Hydrolysis Stability Assay; assay type: physicochemical; settings: 100 μM in 50 mM HEPES pH 7.5 buffer or 1:1 Acetonitrile:Water, room temperature
Experimental: Determination of aqueous stability of the test compounds was performed using HPLC-MS. A test compound 10 mM stock solution was prepared in DMSO. 10 μl of the DMSO stock solution was dissolved in 990 μl of 50 mM HEPES pH 7.5 buffer or 1:1 (v/v) of Acetonitrile:Water to make a 100 μM solution. Final DMSO concentration was 1%. The solution was kept at room temperature and injected without delay into the LCMS (Waters Xevo TQ-S or Micromass Ultima). Additional injections were performed at appropriate time points.
Half-life (T1/2) of the parent conjugate was calculated using the peak area of the parent conjugate at each time point in the linear region of the log—linear plot.

[3] = Cornea Homogenate Conc 0.15 mg/mL
[4] = Cornea Homogenate Conc 0.45 mg/mL

Structure (SMILES)	API Formation rate [1, 3]	Esterase % Lifitegrast formation at 45 min [1, 3]	API Formation rate [1, 4]	Esterase % Lifitegrast formation at 45 min [1, 4]	Hydrolytic % Lifitegrast formation at [time] ([2]; at 192 min)	Hydrolytic % Lifitegrast formation at [time] ([2]; at 142 min)	Hydrolytic % Lifitegrast formation at [time] ([2]; at 45 min)
Cc1ccccc1OCC(=O)N[C@@H](CC(C)C)C(=O)N[C@@H](Cc1ccc(OC(=O)N2CCC(C(N)=O)CC2)cc1)C(=O)OC(C)OC(=O)OC(C)C (stereo partly drawn) [Comp 2, 4-((2S)-3-(1-((isopropoxycarbonyl)oxy)ethoxy)-2-((S)-4-methyl-2-(2-(o-tolyloxy)acetamido)pentan-amido)-3-oxopropyl)phenyl 4-carbamoylpiperidine-1-carboxylate]	b (API formation rate 0.5-1.0%/min)	B (percent API formation 25% to 50%)	c (API formation rate 1.0-1.5%/min)	C (percent API formation 51% to 75%)	A [192 min] (percent active pharmaceutical ingredient (API) formation<1.5%)	–	–
CC(OC(=O)OCC(CO)CO)OC(=O)[C@H](Cc1cccc(S(C)(=O)=O)c1)NC(=O)c1c(Cl)cc2c(c1Cl)CCN(C(=O)c1ccc3ccoc3c1)C2 (stereo partly drawn) [Comp 10, 1-(((3-hydroxy-2-(hydroxymethyl)propoxy)carbonyl)oxy)ethyl (2S)-2-(2-(benzofuran-6-carbonyl)-5,7-dichloro-1,2,3,4-tetrahydroisoquinoline-6-carboxamido)-3-(3-(methylsulfonyl)phenyl) propanoate]	b (API formation rate 0.5-1.0%/min)	A (percent active pharmaceutical ingredient (API) formation<25%)	b (API formation rate 0.5-1.0%/min)	B (percent API formation 25% to 50%)	–	C [142 min] (percent API formation>4%)	–
CC(OC(=O)CCCC[C@@H]1CCSS1)OC(=O)[C@H](Cc1cccc(S(C)(=O)=O)c1)NC(=O)c1c(Cl)cc2c(c1Cl)CCN(C(=O)c1ccc3ccoc3c1)C2 (stereo partly drawn) [Comp 20, 1-(((S)-2-(2-(benzofuran-6-carbonyl)-5,7-dichloro-1,2,3,4-tetrahydroisoquinoline-6-carboxamido)-3-(3-(methylsulfonyl)phenyl)propanoyl)oxy)ethyl 5-((R)-1,2-dithiolan-3-yl)pentanoate]	a (API formation rate<0.5%/min)	A (percent active pharmaceutical ingredient (API) formation<25%)	b (API formation rate 0.5-1.0%/min)	B (percent API formation 25% to 50%)	–	–	A [45 min] (percent active pharmaceutical ingredient (API) formation<1.5%)
CC(=O)OCC(COC(C)=O)COC(=O)OC(C)OC(=O)[C@H](Cc1cccc(S(C)(=O)=O)c1)NC(=O)c1c(Cl)cc2c(c1Cl)CCN(C(=O)c1ccc3ccoc3c1)C2 (stereo partly drawn) [Comp 11, 2-((8S)-10-(2-(benzofuran-6-carbonyl)-5,7-dichloro-1,2,3,4-tetrahydroisoquinolin-6-yl)-5-methyl-8-(3-(methylsulfonyl)benzyl)-3,7,10-trioxo-2,4,6-trioxa-9-azadecyl)propane-1,3-diyl diacetate]	b (API formation rate 0.5-1.0%/min)	B (percent API formation 25% to 50%)	c (API formation rate 1.0-1.5%/min)	B (percent API formation 25% to 50%)	–	C [142 min] (percent API formation>4%)	–
CCOC(=O)OC(C)OC(=O)[C@H](Cc1cccc(S(C)(=O)=O)c1)NC(=O)c1c(Cl)cc2c(c1Cl)CCN(C(=O)c1ccc3ccoc3c1)C2 (stereo partly drawn) [Comp 4, 1-((ethoxycarbonyl)oxy)ethyl (2S)-2-(2-(benzofuran-6-carbonyl)-5,7-dichloro-1,2,3,4-tetrahydroisoquinoline-6-carboxamido)-3-(3-(methylsulfonyl)phenyl) propanoate]	b (API formation rate 0.5-1.0%/min)	B (percent API formation 25% to 50%)	c (API formation rate 1.0-1.5%/min)	C (percent API formation 51% to 75%)	–	–	B [45 min] (percent API formation 1.5-4%)
CC(=O)OC(C)OC(=O)[C@H](Cc1cccc(S(C)(=O)=O)c1)NC(=O)c1c(Cl)cc2c(c1Cl)CCN(C(=O)c1ccc3ccoc3c1)C2 (stereo partly drawn) [Comp 14, 1-acetoxyethyl (2S)-2-(2-(benzofuran-6-carbonyl)-5,7-dichloro-1,2,3,4-tetrahydroisoquinoline-6-carboxamido)-3-(3-(methylsulfonyl)phenyl) propanoate]	c (API formation rate 1.0-1.5%/min)	C (percent API formation 51% to 75%)	d (API formation rate>1.5%/min)	D (percent API formation>75%)	–	B [142 min] (percent API formation 1.5-4%)	–
CC(OC(=O)[C@H](Cc1cccc(S(C)(=O)=O)c1)NC(=O)c1c(Cl)cc2c(c1Cl)CCN(C(=O)c1ccc3ccoc3c1)C2)OC(=O)C(C)(C)C (stereo partly drawn) [Comp 17, 1-(((S)-2-(2-(benzofuran-6-carbonyl)-5,7-dichloro-1,2,3,4-tetrahydroisoquinoline-6-carboxamido)-3-(3-(methylsulfonyl)phenyl)propanoyl)oxy)ethyl pivalate]	b (API formation rate 0.5-1.0%/min)	B (percent API formation 25% to 50%)	c (API formation rate 1.0-1.5%/min)	C (percent API formation 51% to 75%)	–	–	A [45 min] (percent active pharmaceutical ingredient (API) formation<1.5%)
CC(OC(=O)OCC1COC(C)(C)OC1)OC(=O)[C@H](Cc1cccc(S(C)(=O)=O)c1)NC(=O)c1c(Cl)cc2c(c1Cl)CCN(C(=O)c1ccc3ccoc3c1)C2 (stereo partly drawn) [Comp 9, 1-((((2,2-dimethyl-1,3-dioxan-5-yl)methoxy)carbonyl)oxy) ethyl (2S)-2-(2-(benzofuran-6-carbonyl)-5,7-dichloro-1,2,3,4-tetrahydroisoquinoline-6-carboxamido)-3-(3-(methylsulfonyl)phenyl) propanoate]	b (API formation rate 0.5-1.0%/min)	B (percent API formation 25% to 50%)	d (API formation rate>1.5%/min)	C (percent API formation 51% to 75%)	–	B [142 min] (percent API formation 1.5-4%)	–
CC(OC(=O)OCC(COC(=O)[C@@H](C)O)COC(=O)[C@@H](C)O)OC(=O)[C@H](Cc1cccc(S(C)(=O)=O)c1)NC(=O)c1c(Cl)cc2c(c1Cl)CCN(C(=O)c1ccc3ccoc3c1)C2 (stereo partly drawn) [Comp 13, 2-((8S)-10-(2-(benzofuran-6-carbonyl)-5,7-dichloro-1,2,3,4-tetrahydroisoquinolin-6-yl)-5-methyl-8-(3-(methylsulfonyl)benzyl)-3,7,10-trioxo-2,4,6-trioxa-9-azadecyl)propane-1,3-diyl (2R,2'R)-bis(2-hydroxypropanoate)]	a (API formation rate<0.5%/min)	A (percent active pharmaceutical ingredient (API) formation<25%)	a (API formation rate<0.5%/min)	A (percent active pharmaceutical ingredient (API) formation<25%)	–	–	–
